system: Symmetric di-Methyl Arginine in Z-138 cells; assay: Z-138 Methylation Assay (In Cell Western for symmetric di-methyl arginine); assay type: cell-based; conditions: Homo sapiens, 96 hours incubation, symmetric di-methyl arginine normalised to DNA content, read-out: ICW EC50
From the text: Z-138 suspension cells were purchased from ATCC (American Type Culture Collection, Manassas, Va.). RPMI/Glutamax medium, penicillin-streptomycin, heat inactivated fetal bovine serum, and D-PBS were purchased from Life Technologies, Grand Island, N.Y., USA. Odyssey blocking buffer, 800CW goat anti-rabbit IgG (H+L) antibody, and Licor Odyssey infrared scanner were purchased from Licor Biosciences, Lincoln, Nebr., USA. Symmetric di-methyl arginine antibody was purchased from EMD Millipore, Billerica, Mass., USA. 16% Paraformaldehyde was purchased from Electron Microscopy Sciences, Hatfield, Pa., USA.
Z-138 suspension cells were maintained in growth medium (RPMI 1640 supplemented with 10% v/v heat inactivated fetal bovine serum and 100 units/mL penicillin-streptomycin) and cultured at 37° C. under 5% CO2.
Cell Treatment, In Cell Western (ICW) for detection of Symmetric di-Methyl Arginine and DNA content.
Z-138 cells were seeded in assay medium at a concentration of 50,000 cells per mL to a 384-well cell culture plate with 50 μL per well. Compound (100 nL) from 384 well source plates was added directly to 384 well cell plate. Plates were incubated at 37° C., 5% CO2 for 96 hours. After four days of incubation, 40 μL of cells from incubated plates were added to poly-D-lysine coated 384 well culture plates (BD Biosciences 356697). Plates were incubated at room temperature for 30 minutes then incubated at 37° C., 5% CO2 for 5 hours. After the incubation, 40 μL per well of 8% paraformaldehyde in PBS (16% paraformaldahyde was diluted to 8% in PBS) was added to each plate and incubated for 30 minutes. Plates were transferred to a Biotek 405 plate washer and washed 5 times with 100 μL per well of wash buffer (IX PBS with 0.1% Triton X-100 (v/v)). Next […] well of Odyssey blocking buffer were added to each plate and incubated 1 hour at room temperature. Blocking buffer was removed and 20 μL per well of primary antibody was added (symmetric di-methyl arginine diluted 1:100 in Odyssey buffer with 0.1% Tween 20 (v/v)) and plates were incubated overnight (16 hours) at 4° C. Plates were washed 5 times with 100 μL per well of wash buffer. Next 20 μL per well of secondary antibody was added (1:200 800CW goat anti-rabbit IgG (H+L) antibody, 1:1000 DRAQ5 (Biostatus limited) in Odyssey buffer with 0.1% Tween 20 (v/v)) and incubated for 1 hour at room temperature. The plates were washed 5 times with 100 μL per well wash buffer then 1 time with 100 μL per well of water. Plates were allowed to dry at room temperature then imaged on the Licor Odyssey machine which measures integrated intensity at 700 nm and 800 nm wavelengths. Both 700 and 800 channels were scanned.
First, the ratio for each well was determined by:
Each plate included fourteen control wells of DMSO only treatment (minimum inhibition) as well as fourteen control wells for maximum inhibition treated with 3 μM of a reference compound (Background wells). The average of the ratio values for each control type was calculated and used to determine the percent inhibition for each test well in the plate. Reference compound was serially diluted three-fold in DMSO for a total of nine test concentrations, beginning at 3 μM. Percent inhibition was determined and IC50 curves were generated using triplicate wells per concentration of compound.

| SMILES | EC50 [µM] |
| --- | --- |
| O=C(NC[C@H](O)CN1CCc2sccc2C1)c1cc(NC2COC2)ncn1 [Compound 1-1, (S)—N-(3-(6,7-dihydrothieno[3,2-c]pyridin-5(4H)-yl)-2-hydroxypropyl)-6-(oxetan-3-ylamino)pyrimidine-4-carboxamide] | < 0.1 |
| CC(=O)N1CC(Nc2cc(C(=O)NC[C@H](O)CN3CCc4sccc4C3)ncn2)C1 [Compound 1-2, (S)-6-((1-acetylazetidin-3-yl)amino)-N-(3-(6,7-dihydrothieno[3,2-c]pyridin-5(4H)-yl)-2-hydroxypropyl)pyrimidine-4-carboxamide] | < 0.1 |
| CC(=O)N1CCC(Nc2cc(C(=O)NC[C@H](O)CN3CCc4sccc4C3)ncn2)CC1 [Compound 1-3, (S)-6-((1-acetylpiperidin-4-yl)amino)-N-(3-(6,7-dihydrothieno[3,2-c]pyridin-5(4H)-yl)-2-hydroxypropyl)pyrimidine-4-carboxamide] | < 0.1 |
| O=C(COc1cccc2cccnc12)NCC(O)CN1CCc2sccc2C1 (stereo not shown) [Compound 1-4, N-(2-hydroxy-3-{4H,5H,6H,7H-thieno[3,2-c]pyridin-5-yl}propyl)-2-(quinolin-8-yloxy)acetamide] | < 0.1 |
| CC(=O)N1CCC(Nc2cc(C(=O)NC[C@H](O)CN3CCc4nc(C)sc4C3)ncn2)CC1 [Compound 1-7, (S)-6-((1-acetylpiperidin-4-yl)amino)-N-(2-hydroxy-3-(2-methyl-6,7-dihydrothiazolo[5,4-c]pyridin-5(4H)-yl)propyl)pyrimidine-4-carboxamide] | > 1 |
| Cc1nc2c(s1)CN(C[C@@H](O)CNC(=O)c1cc(NC3COC3)ncn1)CC2 [Compound 1-8, (S)—N-(2-hydroxy-3-(2-methyl-6,7-dihydrothiazolo[5,4-c]pyridin-5(4H)-yl)propyl)-6-(oxetan-3-ylamino)pyrimidine-4-carboxamide] | > 1 |
| Cc1csc2c1CN(C[C@@H](O)CNC(=O)c1cc(NC3COC3)ncn1)CC2 [Compound 1-11, (S)—N-(2-hydroxy-3-(3-methyl-6,7-dihydrothieno[3,2-c]pyridin-5(4H)-yl)propyl)-6-(oxetan-3-ylamino)pyrimidine-4-carboxamide] | < 0.1 |
| CC(=O)N1CC(Nc2cc(C(=O)NC[C@H](O)CN3CCc4scc(C)c4C3)ncn2)C1 [Compound 1-12, (S)-6-((1-acetylazetidin-3-yl)amino)-N-(2-hydroxy-3-(3-methyl-6,7-dihydrothieno[3,2-c]pyridin-5(4H)-yl)propyl)pyrimidine-4-carboxamide] | < 0.1 |
| CC(=O)N1CCC(Nc2cc(C(=O)NC[C@H](O)CN3CCc4scc(C)c4C3)ncn2)CC1 [Compound 1-13, (S)-6-((1-acetylpiperidin-4-yl)amino)-N-(2-hydroxy-3-(3-methyl-6,7-dihydrothieno[3,2-c]pyridin-5(4H)-yl)propyl)pyrimidine-4-carboxamide] | < 0.1 |
| CC(=O)N1CCC(Nc2cc(C(=O)NC[C@H](O)CN3CCc4scc(C)c4C3)ccn2)CC1 [Compound 1-14, (S)-2-((1-acetylpiperidin-4-yl)amino)-N-(2-hydroxy-3-(3-methyl-6,7-dihydrothieno[3,2-c]pyridin-5(4H)-yl)propyl)isonicotinamide] | < 0.1 |
| O=C(NC[C@H](O)CN1CCc2ncsc2C1)c1cc(NC2COC2)ncn1 [Compound 1-16, (S)—N-(3-(6,7-dihydrothiazolo[5,4-c]pyridin-5(4H)-yl)-2-hydroxypropyl)-6-(oxetan-3-ylamino)pyrimidine-4-carboxamide] | > 1 |
| CC(=O)N1CC(Nc2cc(C(=O)NC[C@H](O)CN3CCc4ncsc4C3)ncn2)C1 [Compound 1-17, (S)-6-((1-acetylazetidin-3-yl)amino)-N-(3-(6,7-dihydrothiazolo[5,4-c]pyridin-5(4H)-yl)-2-hydroxypropyl)pyrimidine-4-carboxamide] | > 1 |
| CC(=O)N1CCC(Nc2cc(C(=O)NC[C@H](O)CN3CCc4ncsc4C3)ncn2)CC1 [Compound 1-18, (S)-6-((1-acetylpiperidin-4-yl)amino)-N-(3-(6,7-dihydrothiazolo[5,4-c]pyridin-5(4H)-yl)-2-hydroxypropyl)pyrimidine-4-carboxamide] | > 1 |
| CC(=O)N1CCC(Nc2cc(C(=O)NC[C@H](O)CN3CCc4ncsc4C3)ccn2)CC1 [Compound 1-19, (S)-2-((1-acetylpiperidin-4-yl)amino)-N-(3-(6,7-dihydrothiazolo[5,4-c]pyridin-5(4H)-yl)-2-hydroxypropyl)isonicotinamide] | > 1 |
| Nc1nc2c(s1)CCN(C[C@@H](O)CNC(=O)c1cc(NC3COC3)ncn1)C2 [Compound 1-20, (S)—N-(3-(2-amino-6,7-dihydrothiazolo[4,5-c]pyridin-5(4H)-yl)-2-hydroxypropyl)-6-(oxetan-3-ylamino)pyrimidine-4-carboxamide] | > 1 |
| Nc1nc2c(s1)CN(C[C@@H](O)CNC(=O)c1cc(NC3COC3)ncn1)CC2 [Compound 1-23] | > 1 |

| SMILES | EC50 [µM] |
| --- | --- |
| CC(=O)N1CC(Nc2cc(C(=O)NC[C@H](O)CN3CCc4sc(C)nc4C3)ncn2)C1 [Compound 1-27] | > 1 |
| CC(=O)N1CC(Nc2cc(C(=O)NC[C@H](O)CN3CCc4sc(N)nc4C3)ncn2)C1 [Compound 1-28] | > 1 |
| CC(=O)N1CC(Nc2cc(C(=O)NC[C@H](O)CN3CCc4nc(N)sc4C3)ncn2)C1 [Compound 1-29] | > 1 |
| CC(=O)N1CCC(Nc2cc(C(=O)NC[C@H](O)CN3CCc4scnc4C3)ccn2)CC1 [Compound 1-30] | 0.101 to 1 |
| CC(=O)N1CCC(Nc2cc(C(=O)NC[C@H](O)CN3CCc4scnc4C3)ncn2)CC1 [Compound 1-32] | > 1 |
| CC(=O)N1CCC(Nc2cc(C(=O)NC[C@H](O)CN3CCc4sc(C)nc4C3)ccn2)CC1 [Compound 1-33] | > 1 |
| CC(=O)N1CCC(Nc2cc(C(=O)NC[C@H](O)CN3CCc4sc(N)nc4C3)ccn2)CC1 [Compound 1-34] | > 1 |
| CC(=O)N1CCC(Nc2cc(C(=O)NC[C@H](O)CN3CCc4nc(N)sc4C3)ccn2)CC1 [Compound 1-35] | > 1 |
| CC(=O)N1CCC(Nc2cc(C(=O)NC[C@H](O)CN3CCc4sc(C)nc4C3)ncn2)CC1 [Compound 1-36] | > 1 |
| CC(=O)N1CCC(Nc2cc(C(=O)NC[C@H](O)CN3CCc4sc(N)nc4C3)ncn2)CC1 [Compound 1-37] | > 1 |
| CC(=O)N1CCC(Nc2cc(C(=O)NC[C@H](O)CN3CCc4nc(N)sc4C3)ncn2)CC1 [Compound 1-38] | > 1 |
| O=C(COc1cccc2cccnc12)NCC(O)CN1CCc2cccnc2C1 (stereo not shown) [Compound 2-5, N-[2-hydroxy-3-(5,6,7,8-tetrahydro-1,7-naphthyridin-7-yl)propyl]-2-(quinolin-8-yloxy)acetamide] | > 1 |
| O=C(COc1cccc2cccnc12)NCC(O)CN1CCc2ncccc2C1 (stereo not shown) [Compound 2-6, N-[2-hydroxy-3-(5,6,7,8-tetrahydro-1,6-naphthyridin-6-yl)propyl]-2-(quinolin-8-yloxy)acetamide] | > 1 |
| O=C(COc1cccc2cccnc12)NCC(O)CN1CCc2cnccc2C1 (stereo not shown) [Compound 2-7, N-[2-hydroxy-3-(1,2,3,4-tetrahydro-2,6-naphthyridin-2-yl)propyl]-2-(quinolin-8-yloxy)acetamide] | > 1 |
| O=C(COc1cccc2cccnc12)NCC(O)CN1CCc2ccncc2C1 (stereo not shown) [Compound 2-8, N-[2-hydroxy-3-(1,2,3,4-tetrahydro-2,7-naphthyridin-2-yl)propyl]-2-(quinolin-8-yloxy)acetamide] | > 1 |
